Experimental data reported in PubChem BioAssay AID2060883 (Molecular Pharmacology Branch, DTP, NCI, 2025).

Tested on: 843782-103-R-J1-PDC complex spheroid viability
Experiment: Anticancer human tumor 843782-103-R-J1-PDC patient-derived lung adenocarcinoma cell line growth inhibition [RAS]
Details: for IC50: curve of first compound; for viability, T/C: stronger effect = lower value
Outline: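 Multi-cell-type spheroids: tumor cells plus HUVEC endothelial cells and mesenchymal stem cells. RAS-pathway inhibitors were combined with targeted agents, each dosed in half-log steps down from clinical Cmax, or from 10 microM when Cmax was unknown.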

[1] = second compound 0.000949 µM, first compound 0.0316 µM
[2] = second compound 0.000949 µM, first compound 0.1 µM
[3] = second compound 0.000949 µM, first compound 0.316 µM
[4] = second compound 0.000949 µM, first compound 1 µM
[5] = second compound 0.003 µM, first compound 0.0316 µM
[6] = second compound 0.003 µM, first compound 0.1 µM
[7] = second compound 0.003 µM, first compound 0.316 µM
[8] = second compound 0.003 µM, first compound 1 µM
[9] = second compound 0.00949 µM, first compound 0.0316 µM
[10] = second compound 0.00949 µM, first compound 0.1 µM
[11] = second compound 0.00949 µM, first compound 0.316 µM
[12] = second compound 0.00949 µM, first compound 1 µM
[13] = second compound 0.03 µM, first compound 0.0316 µM
[14] = second compound 0.03 µM, first compound 0.1 µM
[15] = second compound 0.03 µM, first compound 0.316 µM
[16] = second compound 0.03 µM, first compound 1 µM
[17] = second compound 0.0949 µM, first compound 0.0316 µM
[18] = second compound 0.0949 µM, first compound 0.1 µM
[19] = second compound 0.0949 µM, first compound 0.316 µM
[20] = second compound 0.0949 µM, first compound 1 µM
[21] = second compound 0.3 µM, first compound 0.0316 µM
[22] = second compound 0.3 µM, first compound 0.1 µM
[23] = second compound 0.3 µM, first compound 0.316 µM
[24] = second compound 0.3 µM, first compound 1 µM
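Also: viability read after seven days of compound exposure.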

Question: Which results are given for `CC(Nc1ccc2c(c1)OCCn1cc(N3C(=O)OCC3C(F)F)nc1-2)C(N)=O` (centres undefined) + CCn1c(-c2cc(N3CCN(C)CC3)cnc2C(C)OC)c2c3cc(ccc31)-c1csc(n1)CC(NC(=O)C1CC1C)C(=O)N1CCCC(N1)C(=O)OCC(C)(C)C2?
Answer: IC50 (second compound 0.000949 µM): 77 nM; IC50 (second compound 0.003 µM): < 31.6 nM; IC50 (second compound 0.00949 µM): < 31.6 nM; IC50 (second compound 0.03 µM): < 31.6 nM; IC50 (second compound 0.0949 µM): < 31.6 nM; IC50 (second compound 0.3 µM): < 31.6 nM; viability, T/C [1]: 58%; viability, T/C [2]: 48.6%; viability, T/C [3]: 29.5%; viability, T/C [4]: 17.9%; viability, T/C (second compound 0.000949 µM, first compound 3.16 µM): 15.6%; viability, T/C (second compound 0.000949 µM, first compound 10 µM): 8.54%; viability, T/C [5]: 46.8%; viability, T/C [6]: 31.7%; viability, T/C [7]: 23.1%; viability, T/C [8]: 14.1%; viability, T/C (second compound 0.003 µM, first compound 3.16 µM): 10.7%; viability, T/C (second compound 0.003 µM, first compound 10 µM): 5.42%; viability, T/C [9]: 28%; viability, T/C [10]: 17.1%; viability, T/C [11]: 17%; viability, T/C [12]: 10.7%; viability, T/C (second compound 0.00949 µM, first compound 3.16 µM): 9.87%; viability, T/C (second compound 0.00949 µM, first compound 10 µM): 3.83%; viability, T/C [13]: 17.1%; viability, T/C [14]: 13.6%; viability, T/C [15]: 10.8%; viability, T/C [16]: 8.39%; viability, T/C (second compound 0.03 µM, first compound 3.16 µM): 6.08%; viability, T/C (second compound 0.03 µM, first compound 10 µM): 2.39%; viability, T/C [17]: 15.7%; viability, T/C [18]: 10.8%; viability, T/C [19]: 9.99%; viability, T/C [20]: 6.85%; viability, T/C (second compound 0.0949 µM, first compound 3.16 µM): 4.41%; viability, T/C (second compound 0.0949 µM, first compound 10 µM): 3.16%; viability, T/C [21]: 16.4%; viability, T/C [22]: 10.4%; viability, T/C [23]: 7.76%; viability, T/C [24]: 7.43%; viability, T/C (second compound 0.3 µM, first compound 3.16 µM): 5.53%; viability, T/C (second compound 0.3 µM, first compound 10 µM): 2.56%

Question: For `Nc1ccn(C2OC(CO)C(O)C2(F)F)c(=O)n1` (centres undefined) + CCn1c(-c2cccnc2C(C)OC)c2c3cc(ccc31)N1CCOC(CC(NC(=O)C(C(C)C)N(C)C(=O)C3(F)CCN(C(=O)C#CC(C)(C)N(C)C)CC3)C(=O)N3CCCC(N3)C(=O)OCC(C)(C)C2)C1, which IC50 (second compound 0.000949 µM) is on record?
Answer: 11 nM

Question: What about the IC50 (second compound 0.003 µM) of the same compound?
Answer: 16.6 nM

Question: What about the IC50 (second compound 0.00949 µM) of the same compound?
Answer: 13.1 nM

Question: What about the IC50 (second compound 0.03 µM) of the same compound?
Answer: 16.7 nM

Question: What about the IC50 (second compound 0.0949 µM) of the same compound?
Answer: 16.9 nM

Question: What about the IC50 (second compound 0.3 µM) of the same compound?
Answer: 14.3 nM

Question: And the viability, T/C (second compound 0.000949 µM, first compound 0.00316 µM)?
Answer: 70.1%

Question: And the viability, T/C (second compound 0.000949 µM, first compound 0.01 µM)?
Answer: 52%

Question: And the viability, T/C [1]?
Answer: 22.1%

Question: And the viability, T/C [2]?
Answer: 2.91%

Question: And the viability, T/C [3]?
Answer: 1.53%

Question: And the viability, T/C [4]?
Answer: 1.52%

Question: And the viability, T/C (second compound 0.003 µM, first compound 0.00316 µM)?
Answer: 77.5%

Question: And the viability, T/C (second compound 0.003 µM, first compound 0.01 µM)?
Answer: 72%

Question: And the viability, T/C [5]?
Answer: 21.7%

Question: And the viability, T/C [6]?
Answer: 2.04%

Question: And the viability, T/C [7]?
Answer: 1.96%

Question: What about the viability, T/C [8] of the same compound?
Answer: 2.38%

Question: And the viability, T/C (second compound 0.00949 µM, first compound 0.00316 µM)?
Answer: 73.3%

Question: What about the viability, T/C (second compound 0.00949 µM, first compound 0.01 µM) of the same compound?
Answer: 59.4%

Question: What about the viability, T/C [9] of the same compound?
Answer: 18.9%

Question: What about the viability, T/C [10] of the same compound?
Answer: 2.07%

Question: And the viability, T/C [11]?
Answer: 1.82%

Question: And the viability, T/C [12]?
Answer: 1.89%

Question: What about the viability, T/C (second compound 0.03 µM, first compound 0.00316 µM) of the same compound?
Answer: 72.4%

Question: And the viability, T/C (second compound 0.03 µM, first compound 0.01 µM)?
Answer: 74.5%

Question: And the viability, T/C [13]?
Answer: 21.1%

Question: And the viability, T/C [14]?
Answer: 2.07%

Question: What about the viability, T/C [15] of the same compound?
Answer: 1.99%

Question: And the viability, T/C [16]?
Answer: 1.85%

Question: And the viability, T/C (second compound 0.0949 µM, first compound 0.00316 µM)?
Answer: 85.6%

Question: And the viability, T/C (second compound 0.0949 µM, first compound 0.01 µM)?
Answer: 69.9%

Question: And the viability, T/C [17]?
Answer: 26.4%

Question: What about the viability, T/C [18] of the same compound?
Answer: 2.27%

Question: What about the viability, T/C [19] of the same compound?
Answer: 1.51%

Question: What about the viability, T/C [20] of the same compound?
Answer: 1.37%

Question: What about the viability, T/C (second compound 0.3 µM, first compound 0.00316 µM) of the same compound?
Answer: 70.4%

Question: What about the viability, T/C (second compound 0.3 µM, first compound 0.01 µM) of the same compound?
Answer: 62.7%

Question: What about the viability, T/C [21] of the same compound?
Answer: 21.8%

Question: What about the viability, T/C [22] of the same compound?
Answer: 2.7%

Question: And the viability, T/C [23]?
Answer: 1.81%

Question: What about the viability, T/C [24] of the same compound?
Answer: 1.46%
